Results from ChEMBL document CHEMBL1201862, “PubChem BioAssay data set” (2004).
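Where inhibition never reached the appropriate level, the endpoint shown equals the highest concentration tested. Otherwise, values were interpolated linearly from a five-concentration, 48-hour dose response in 96-well plates. GI50 marks 50% less growth.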 Active and inactive are the calls of the source. Cut-off read from the data, not from the text of the source: active = GI50 up to about 1.1 µM and inactive = higher.

Assays:
Experiment in all cases: NCI tumour cell line growth inhibition, 48 h
RPMI-8226 = test system: RPMI-8226
HL-60 = test system: HL-60
SNB-19 = test system: SNB-19
RXF 393 = test system: RXF 393
OVCAR-8 = test system: OVCAR-8
HCT-116 = test system: HCT-116
OVCAR-3 = test system: OVCAR-3
UACC-62 = test system: UACC-62
HOP-92 = test system: HOP-92
ACHN = test system: ACHN
HCC 2998 = test system: HCC 2998
HOP-62 = test system: HOP-62
HCT-15 = test system: HCT-15
LOX IMVI = test system: LOX IMVI
SN12C = test system: SN12C
NCI-H460 = test system: NCI-H460
U-251 = test system: U-251
SF-539 = test system: SF-539
DMS-273 = test system: DMS-273
UO-31 = test system: UO-31
SK-MEL-28 = test system: SK-MEL-28
KM12 = test system: KM12
MOLT-4 = test system: MOLT-4
SK-MEL-2 = test system: SK-MEL-2
SW-620 = test system: SW-620
786-0 = test system: 786-0
IGROV-1 = test system: IGROV-1
M14 = test system: M14
DMS-114 = test system: DMS-114
HOP-18 = test system: HOP-18
UACC-257 = test system: UACC-257
XF498 = test system: XF498
M19-MEL = test system: M19-MEL
SF-295 = test system: SF-295
NCI-H23 = test system: NCI-H23
A549 = test system: A549
K562 = test system: K562
SK-MEL-5 = test system: SK-MEL-5
Malme-3M = test system: Malme-3M
HT-29 = test system: HT-29
NCI-H226 = test system: NCI-H226
CCRF-CEM = test system: CCRF-CEM
COLO 205 = test system: COLO 205
SK-OV-3 = test system: SK-OV-3
DLD-1 = test system: DLD-1
TK-10 = test system: TK-10
A498 = test system: A498
CAKI-1 = test system: CAKI-1
NCI-H522 = test system: NCI-H522
KM-20L2 = test system: KM-20L2
SNB-75 = test system: SNB-75
SF-268 = test system: SF-268
EKVX = test system: EKVX
SNB-78 = test system: SNB-78
SR = test system: SR

Measured: GI50

COc1ccc([Se]c2ccc(OC)cc2)cc1
68.1 µM: HCT-15
inactive: RPMI-8226 24.4 µM | HL-60 41.5 µM | SNB-19 > 100 µM | RXF 393 19.5 µM | OVCAR-8 > 100 µM | HCT-116 55.2 µM | OVCAR-3 76.6 µM | UACC-62 > 100 µM | HOP-92 23.9 µM | ACHN > 100 µM | HCC 2998 > 100 µM | HOP-62 > 100 µM | LOX IMVI > 100 µM | SN12C > 100 µM | NCI-H460 > 100 µM | U-251 > 100 µM | SF-539 73.3 µM | DMS-273 92.5 µM | UO-31 2.09 µM | SK-MEL-28 > 100 µM | KM12 > 100 µM | MOLT-4 41.5 µM | SK-MEL-2 > 100 µM | SW-620 > 100 µM | 786-0 > 100 µM | IGROV-1 > 100 µM | M14 > 100 µM | DMS-114 29.1 µM | HOP-18 27.9 µM | UACC-257 48.2 µM | XF498 > 100 µM | M19-MEL 69.7 µM | SF-295 > 100 µM | NCI-H23 56.2 µM | A549 > 100 µM | K562 60.1 µM | SK-MEL-5 48.2 µM | Malme-3M > 100 µM | HT-29 43.6 µM | NCI-H226 17.4 µM | CCRF-CEM 58.9 µM | COLO 205 > 100 µM | SK-OV-3 > 100 µM | DLD-1 > 100 µM | TK-10 > 100 µM | A498 99.1 µM | CAKI-1 23.3 µM | NCI-H522 27.2 µM | KM-20L2 65.2 µM | SNB-75 19.3 µM | SF-268 56.9 µM

C1=C2/CC[C@H](Sc3ccccc3)C2C2(CCCCC/1)OCCO2 (some centres not stated)
inactive: RPMI-8226 17.6 µM | HL-60 8.41 µM | SNB-19 > 100 µM | RXF 393 15.7 µM | OVCAR-8 39.3 µM | HCT-116 16.5 µM | OVCAR-3 18.7 µM | UACC-62 16.5 µM | EKVX 32.9 µM | HOP-92 3.72 µM | ACHN 26.7 µM | HCC 2998 23.5 µM | HOP-62 19.3 µM | LOX IMVI 15.2 µM | SN12C 32.3 µM | NCI-H460 21.5 µM | U-251 29.3 µM | SF-539 41.8 µM | DMS-273 25.4 µM | SK-MEL-28 30.2 µM | KM12 26.5 µM | MOLT-4 16.6 µM | SK-MEL-2 15.8 µM | SNB-78 39.4 µM | SW-620 28.1 µM | 786-0 42.4 µM | IGROV-1 27.9 µM | HOP-18 29.9 µM | UACC-257 15.9 µM | XF498 22.7 µM | M19-MEL 15.6 µM | SF-295 27.5 µM | NCI-H23 16.2 µM | K562 24.7 µM | Malme-3M 22.1 µM | HT-29 14.4 µM | NCI-H226 23.6 µM | CCRF-CEM 28.6 µM | COLO 205 21.6 µM | DLD-1 33 µM | TK-10 83.9 µM | SR 10.7 µM | KM-20L2 18.2 µM | SNB-75 23.9 µM | SF-268 39.2 µM
